{
  "source": "ChEMBL document CHEMBL1201862",
  "about": "“PubChem BioAssay data set” (2004)",
  "assay_type_in_all_cases": "functional",
  "key": {"[1]": {"biological_target": "T1, Coagulation factor XII (Homo sapiens, UniProt P00748)", "T1 sequence (P00748 whole entry)": "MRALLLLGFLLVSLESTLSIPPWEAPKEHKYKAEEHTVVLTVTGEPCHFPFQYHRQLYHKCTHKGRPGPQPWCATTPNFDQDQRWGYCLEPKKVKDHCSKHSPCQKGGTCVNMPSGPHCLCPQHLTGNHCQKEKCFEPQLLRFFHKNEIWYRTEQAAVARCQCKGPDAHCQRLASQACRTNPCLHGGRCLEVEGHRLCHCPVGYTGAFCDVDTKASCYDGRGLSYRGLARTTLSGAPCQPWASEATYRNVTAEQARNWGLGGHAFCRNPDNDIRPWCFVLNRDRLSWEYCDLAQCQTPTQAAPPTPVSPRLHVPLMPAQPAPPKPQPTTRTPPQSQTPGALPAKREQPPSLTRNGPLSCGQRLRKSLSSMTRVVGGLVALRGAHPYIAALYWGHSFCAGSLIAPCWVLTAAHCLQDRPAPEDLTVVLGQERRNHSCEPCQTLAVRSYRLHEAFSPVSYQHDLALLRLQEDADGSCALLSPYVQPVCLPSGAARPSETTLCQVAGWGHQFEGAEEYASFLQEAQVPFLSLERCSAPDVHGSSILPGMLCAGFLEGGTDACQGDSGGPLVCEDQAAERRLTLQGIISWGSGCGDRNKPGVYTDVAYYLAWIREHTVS", "assay": "Factor XIIa Dose Response Confirmation from Single Well HTS. [Related pubchem assays (depositor defined):AID701]"}, "[2]": {"biological_target": "T2, Type-1 angiotensin II receptor (Homo sapiens, UniProt P30556)", "T2 sequence (P30556 whole entry)": "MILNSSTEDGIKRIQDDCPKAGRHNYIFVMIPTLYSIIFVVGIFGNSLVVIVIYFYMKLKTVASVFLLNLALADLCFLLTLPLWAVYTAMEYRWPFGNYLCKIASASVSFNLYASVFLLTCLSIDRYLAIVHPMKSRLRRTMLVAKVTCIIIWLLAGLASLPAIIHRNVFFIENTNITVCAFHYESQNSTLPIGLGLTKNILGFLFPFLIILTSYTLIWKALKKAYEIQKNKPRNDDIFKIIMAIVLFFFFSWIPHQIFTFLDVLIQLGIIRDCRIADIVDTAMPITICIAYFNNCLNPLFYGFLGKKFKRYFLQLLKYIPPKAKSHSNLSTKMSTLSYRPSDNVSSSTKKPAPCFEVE", "assay": "AT1 receptor agonists, dose response, selectivity assay for APJ receptor agonist project, cell-based, uHTS hits (AID 488865);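 further: beta-arrestin recruitment to AT1 measured by enzyme fragment complementation luminescence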"}, "[3]": {"biological_target": "T3, Kappa-type opioid receptor (Homo sapiens, UniProt P41145)", "T3 sequence (P41145 whole entry)": "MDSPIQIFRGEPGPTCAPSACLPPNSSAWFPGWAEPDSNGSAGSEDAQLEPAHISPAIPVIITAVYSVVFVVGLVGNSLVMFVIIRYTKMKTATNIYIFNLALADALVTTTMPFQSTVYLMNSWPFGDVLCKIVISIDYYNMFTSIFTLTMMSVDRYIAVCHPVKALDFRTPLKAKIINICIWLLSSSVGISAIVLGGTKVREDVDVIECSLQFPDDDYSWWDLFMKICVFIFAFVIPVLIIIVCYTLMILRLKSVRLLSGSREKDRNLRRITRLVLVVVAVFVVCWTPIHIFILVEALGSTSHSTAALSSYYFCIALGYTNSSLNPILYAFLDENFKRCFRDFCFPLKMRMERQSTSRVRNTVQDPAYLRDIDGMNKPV", "assay": "SAR analysis of Antagonists of the Kappa Opioid Receptor (KOR) using an Image-Based Assay - Set 3. [Related pubchem assays (depositor defined):AID1777, AID1785]"}, "[4]": {"biological_target": "Mu-type opioid receptor (Homo sapiens, UniProt P35372)", "sequence (P35372 whole entry)": "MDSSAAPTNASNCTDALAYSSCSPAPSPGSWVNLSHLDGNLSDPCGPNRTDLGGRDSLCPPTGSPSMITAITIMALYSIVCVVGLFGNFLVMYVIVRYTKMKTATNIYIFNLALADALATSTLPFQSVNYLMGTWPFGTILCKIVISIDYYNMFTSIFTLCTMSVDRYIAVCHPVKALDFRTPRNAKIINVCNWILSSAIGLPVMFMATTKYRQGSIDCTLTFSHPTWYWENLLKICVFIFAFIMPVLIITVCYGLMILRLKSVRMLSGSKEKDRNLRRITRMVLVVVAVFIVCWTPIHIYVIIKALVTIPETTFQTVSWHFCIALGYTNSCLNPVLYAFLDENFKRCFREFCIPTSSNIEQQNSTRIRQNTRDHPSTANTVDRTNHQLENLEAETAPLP", "assay": "SAR Analysis of Antagonists of the MOR Receptor using an Image-Based Assay - Set 3. [Related pubchem assays (depositor defined):AID1777, AID1785, AID1786, AID1966, AID2133, AID2136, AID2284, AID2285, AID2420]"}, "[5]": {"biological_target": "Delta-type opioid receptor (Homo sapiens, UniProt P41143)", "sequence (P41143 whole entry)": "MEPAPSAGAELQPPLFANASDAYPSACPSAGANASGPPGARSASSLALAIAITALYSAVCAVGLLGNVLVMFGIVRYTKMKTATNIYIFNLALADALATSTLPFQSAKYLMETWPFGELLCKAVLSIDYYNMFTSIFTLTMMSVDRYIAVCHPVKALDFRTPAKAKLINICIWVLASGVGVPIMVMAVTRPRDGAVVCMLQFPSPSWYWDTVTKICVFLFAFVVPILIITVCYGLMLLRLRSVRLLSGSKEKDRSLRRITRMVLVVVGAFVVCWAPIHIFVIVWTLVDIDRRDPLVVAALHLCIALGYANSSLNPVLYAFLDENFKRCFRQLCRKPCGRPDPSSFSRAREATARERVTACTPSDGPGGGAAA", "assay": "SAR Analysis of Antagonists of the DOR Receptor using an Image-Based Assay - Set 3. [Related pubchem assays (depositor defined):AID1777, AID1785]"}, "[6]": {"biological_target": "T3, Kappa-type opioid receptor", "assay": "SAR analysis of small molecule antagonists of the kappa opioid receptor via a luminescent beta-arrestin assay - Set 3. [Related pubchem assays (depositor defined):AID1777, AID1778, AID1785, AID1786, AID1966, AID2133, AID2136, AID2285, AID2495]"}},
  "note": "Active and inactive are the calls of the source.",
  "data": [
    {"smiles": "O=C1N=C(c2ccccc2)S/C1=C\\c1cccs1", "values": [
      {"measurement": "IC50", "setting": "[1]", "result": "> 50 µM (inactive)"}
    ]},
    {"smiles": "CCN1C(c2ccccc2)=C(c2ccccc2)S/C1=C\\C=C1/SC(=S)N(C)C1=O", "values": [
      {"measurement": "EC50", "setting": "[2]", "result": "7.44 µM (active)"}
    ]},
    {"smiles": "O=C(Cn1c(=O)c2cccn2c2ccccc21)NCCCN1CCN(Cc2ccccc2)CC1", "values": [
      {"measurement": "IC50", "setting": "[3]", "result": "> 32 µM (inactive)"},
      {"measurement": "IC50", "setting": "[4]", "result": "> 32 µM (inactive)"},
      {"measurement": "IC50", "setting": "[5]", "result": "> 32 µM (inactive)"},
      {"measurement": "IC50", "setting": "[6]", "result": "> 20 µM (inactive)"}
    ]}
  ]
}
